The text below walks through data of patent publication US20110034472A1, “Novel Compounds for Treatment of Cancer and Disorders Associated With Angiogenesis Function” (UNIVERSITY OF SOUTHERN CALIFORNIA, priority 2004, published 2011).

For one assay, the system named is DU145 cells. As to the kind of experiment: Cell cycle analysis (propidium iodide), SC21, DU145. It counts as cell-based, human. To be noted: 72 hours of exposure, IC50. The method, then: FIG. 17 depicts flow cytometric analysis of the cell cycle profiles of DU145, PC3, MDA-MB-435, and HEY cells treated with SC21. […] SC21 induced a G0/G1 phase arrest in DU145 and MDA-MB-435 cells and S phase arrest in PC3 and HEY cells.
Cell cycle perturbations induced by SC21 and camptothecin (CPT) were analyzed by propidium iodide DNA staining. Briefly, exponentially growing PC3 and DU145 cells were treated with different doses of the drug for 24, 48, and 72 hours. At the end of each treatment time, cells were collected and washed with PBS after a gentle centrifugation at 200×g for 5 minutes. Cells were thoroughly resuspended in 0.5 mL of PBS and fixed in 70% ethanol for at least 2 hours at 4° C. Ethanol-suspended cells were then centrifuged at 200×g for 5 minutes and washed twice in PBS to remove residual ethanol. For cell cycle analysis, the pellets were suspended in 1 mL of PBS containing 0.02 mg/mL of propidiumiodide, 0.5 mg/mL of DNase-free RNase A and 0.1% of Triton X-100 and incubated at 37° C. for 30 minutes. Cell cycle profiles were obtained using a FACScan flowcytometer (Becton Dickinson, San Jose, Calif.) and data were analyzed by ModFit LT software (Verity Software House, Inc., Topsham, Me.). […]

A further assay deals with HT29 colon cancer cells. Briefly: MTT cytotoxicity assay, HT 29. It counts as cell-based, human. The following applies: Homo sapiens, 72 h. The source says: (§1) Human breast cancer cells MDA-MB-435 and colon cancer HT29, p53 mutant were purchased from the American Type Cell Culture (Manassas, Va.). The HCT116 P53^+/+ and HCT116 P53^−/− cells were kindly provided by Dr. Bert Vogelstein (Johns Hopkins Medical Institutions, Baltimore, Md.). Human prostate cancer cells, LNCaP, were kindly provided by Richard Cote (University of Southern California Keck School of Medicine). Cells were maintained as monolayer cultures in RPMI 1640 media supplemented with 10% fetal bovine serum (Gemini-Bioproducts, Woodland, Calif.) and 2 mmol/L L-glutamine at 37° C. in a humidified atmosphere of 5% CO2. To remove the adherent cells from the flask for passaging and counting, cells were washed with PBS without calcium or magnesium, incubated with a small volume of 0.25% trypsin-EDTA solution (Sigma-Aldrich, St. Louis, Mo.) for 5-10 min, and washed with culture medium and centrifuged. All experiments were performed using cells at exponential growth stage. Cells were routinely checked for mycoplasma contamination using a PCR-based assay (Stratagene, Cambridge, UK).
(§2) Cytotoxicity was assessed by a 3-(4,5-dimethylthiazol-2-yl)-2,5-diphenyltetrazolium bromide (MTT) assay as previously described.^9 Briefly, cells were seeded in 96-well microtiter plates and allowed to attach. Cells were subsequently treated with continuous exposure to the corresponding drug for 72 h. An MTT solution (at a final concentration of 0.5 mg/mL) was added to each well, and cells were incubated for 4 h at 37° C. After removal of the medium, DMSO was added and the absorbance was read at 570 nm. All assays were done in triplicate. The IC50 was then determined for each drug from a plot of log (drug concentration) versus percentage of cells killed.
In general terms: Tetrazolium assays rely on reduction of a dye to a coloured formazan, in cell work by metabolically active cells.

Assay [1] deals with HOP-92 non-small cell lung cancer cells. As to the kind of experiment: Sensitivity of various cancer cells to SC144, HOP-92. To be noted: Homo sapiens. It counts as cell-based. The source says:
(§3) The studies were expanded to other cell lines. […] Subnanomolar to low nanomolar potency was also observed in HCT-116 and HT29 colon cancer cell lines (Table 2).

Assay [2] relates to HCT 116 p53^−/− colon cancer cells. As to the kind of experiment: MTT cytotoxicity assay, HCT 116 p53-/-. It counts as cell-based, human. The following applies: Homo sapiens, 72 h.
Excerpt: as §1, §2

The next assay has as its system HL60 leukemia cells. As to the kind of experiment: Sensitivity of various cancer cells to SC144, HL60. It counts as cell-based. The following applies: Homo sapiens, HL-60.
Excerpt: as §3

Assay [3] concerns HOP-62 non-small cell lung cancer cells. As to the kind of experiment: Sensitivity of various cancer cells to SC144, HOP-62. The format is cell-based. The following applies: Homo sapiens.
Excerpt: as §3

Another assay relates to MDA-MB-435 xenograft. As to the kind of experiment: microPET study of nude mouse with MDA-MB-435 xenograft treated with SC144. It counts as in vivo. The following applies: 4 mg/kg daily i.p. 5 days; caliper measurements for 5 weeks. How it is done: Top row, baseline scans: (A) equilibrium-phase FDG, 30 min post injection; (B) FMAU, 10 min post injection; (C) FMAU, 60 min post injection. Bottom row, follow-up scans: (D) FDG, 30 min post injection; (E) FMAU, 10 min post injection; (F) FMAU, 60 min post injection. […] After five days of dosing, the drug treatment was discontinued and the follow-up scans were obtained on days 6 and 7.
[^18F]FDG is currently the most widely used radiotracer for imaging therapy response in oncology with PET. PET/[^18F]FDG measures viable cell density in tumors and also provides information on the expression of glucose transporters and hexokinase activity. […] Following cellular uptake, FMAU is phosphorylated by thymidine kinase and incorporated into DNA.
In later images at 30 and 60 min (FIG. 8C), FMAU had filled up the whole tumor, indicating the presence of dividing cells throughout.
FIGS. 8D-F show a repeat study of the same mouse after 5 days of treatment.

Assay [4] relates to MDA-MB-435 cells. As to the kind of experiment: Flow cytometric cell cycle analysis, SC144. It counts as cell-based, human. To be noted: 24 h of treatment, SC144 3 uM. The source says:
Similar effects were obtained on the asynchronous prostate cancer cell line DU145.

Another assay relates to UO-31 renal cancer cells. Briefly: Sensitivity of various cancer cells to SC144, UO-31. To be noted: Homo sapiens. It counts as cell-based.
Excerpt: as §3

Assay [5] has as its system EKVX non-small cell lung cancer cells. As to the kind of experiment: Sensitivity of various cancer cells to SC144, EKVX. The following applies: Homo sapiens. The format is cell-based.
Excerpt: as §3

The next assay concerns RPMI-8226 leukemia cells. As to the kind of experiment: Sensitivity of various cancer cells to SC144, RPMI-8226. It counts as cell-based. To be noted: Homo sapiens.
Excerpt: as §3

Assay [6] concerns MDA-MB-435 cells. Briefly: Annexin V/PI apoptosis analysis, SC144 and CPT. It counts as cell-based, human. The following applies: 48 h; IC80. The source says: Cells were stained with annexin V/PI and analyzed by flow cytometry. Cells in the bottom left quadrant of each panel (Annexin V-negative, PI-negative) are viable, whereas cells in the bottom right quadrant (Annexin V-positive, PI-negative) are in the early stages of apoptosis, and cells in the top right quadrant (Annexin V-positive, PI-positive) are in later stages of apoptosis and necrosis.
An early event in apoptotic cell death is the translocation of the phosphatidyl-serine residues to the outer part of the cell membrane. This event precedes nuclear breakdown, DNA fragmentation, the appearance of most apoptosis-associated molecules, and is readily measured by annexin V binding assay. By this method, SC144 was compared with CPT.

SMILES strings stand for the structures. Like-named read-outs stand apart in the source and are kept apart here.

For `O=C(NNC(=O)c1ccccc1O)C1=CC2C=CC=CC2C=C1O` (centres unmarked) [SC21], in the assay with DU145 cells, the “cells retained in G0/G1 phase” value came out at 65%.

In the case of `O=C(NNc1nc2cc(F)ccc2n2cccc12)c1cnccn1` [SC144, Pyrazine-2-carboxylic acid N′-(7-fluoro-pyrrolo[1,2-a]quinoxalin-4-yl)-hydrazide], the IC50 turned out to be 900 ± 60 nM in the assay on HT29 colon cancer cells and 900 ± 40 nM in assay [2]. The CC50 is 200 nM in [1]; 270 nM in the assay with HL60 leukemia cells; 10 nM in assay [3] (HOP-62, read-out: CC50); 10 to 20 nM in [3] (non-small cell lung cancer cells HOP-62, EKVX, and HOP-92, read-out: CC50 values range); 300 nM in the assay with UO-31 renal cancer cells; 10 nM in [5]. This molecule yielded a CC50 with RPMI-8226 leukemia cells of 250 nM. For the same molecule, the “long-term reduction of tumor volume compared with sham-treated control mice” value with MDA-MB-435 xenograft was > 50%. The “cells retained in S-phase” value in the assay on MDA-MB-435 cells [4] turned out to be 80%. In addition, in the assay with MDA-MB-435 cells [6], the early-apoptotic cells was determined as 37%. Moreover, in the assay on MDA-MB-435 cells [6], the late-apoptosis/necrosis turned out to be 16%.

For orientation: IC50 means the concentration needed to halve the response being measured. Lower therefore signals inhibition by little substance. By CC50 is commonly meant the concentration giving 50% cytotoxicity.
